What all share (assay type): cell-based
The nature of series [1]: Cell viability measurement (MTS), Calu-3 cells. To be noted: human. As to the method: (§1) Experimental Example 3: Cell Viability Measurement
(§2) Vero cell line (VERO01WCB-1201, Ministry of Food and Drug Safety, Republic of Korea), Calu-3 cell line (KCLB #30055, Korea Cell Line Bank (KCLB), Republic of Korea), CellTiter 96® AQueous One Solution Cell Proliferation Assay kit (Promega, cat. #G3582), and Infinite M200 microplate reader (Tecan).
Calu-3 cells were cultured at 37 °C and 5% CO2 in MEM medium supplemented with 10% fetal bovine serum, 2.2 g/L sodium bicarbonate, 1% 100 units/mL penicillin, and 100 μg/mL streptomycin.
(§3) Vero cells or Calu-3 cells were seeded in 96-well microplates and cultured for 24 hours until the cell confluency reached 20%. After the incubation, compounds were treated in DMSO at concentrations (1, 3, and 10 μM) to reach 0.5% v/v in each well, and reacted at 37 °C for 48 hours. Into each well of the incubated 96-well microplate, 3-(4,5-dimethylthiazol-2-yl)-5-(3-carboxymethoxyphenyl)-2-(4-sulfophenyl)-2H-tetrazolium salt (MTS) assay solution [CellTiter 96® AQueous One Solution Cell Proliferation Assay kit (Promega)] mixed with DMEM medium at a ratio of 1:5, was dispensed at 100 μL/well and incubated at 37 °C for 1 hour. The 490 nm and 690 nm absorbance was then measured using an Infinite M200 instrument.
(§4) The cell viability (also, referred to as cell survival rate) (%) by compound treatment was calculated using the following analysis method. The 690 nm background absorbance value was subtracted from the measured 490 nm absorbance value. Then, to obtain the cell viability of each test group, the viability of the DMSO-treated group that was not treated with the compound was set to 100% and then the relative viability 1 of each compound was calculated. Two to six repeated tests were performed to obtain the results, and the mean values of the results were categorized into the following ranges and shown in Table 5 below (A: 80% survived, B: 50-80% survived, N/A: not tested)

The subject of series [2] is Severe Acute Respiratory Syndrome Coronavirus Type 2. Briefly: microbe, parasite or virus in culture. To be noted: Vero, read-out: Virus replication inhibition efficacy.
A short description of series [3]: Cell viability measurement (MTS), Vero cells. To be noted: monkey. As to the method:
as §1, §2
Vero cells were cultured at 37 °C and 5% CO2 in DMEM medium supplemented with 10% fetal bovine serum, 100 units/mL penicillin, and 100 μg/mL streptomycin.
as §3, §4

Series [4] has as its system Severe Acute Respiratory Syndrome Coronavirus Type 2. Briefly: microbe, parasite or virus in culture. As to conditions: read-out: Virus replication inhibition efficacy.
Where [5] appears, read: 10 uM, virus strain NCCP-43388, 48 hours.
The mark [6] stands for this setting: Calu-3, 10 uM, virus strain NCCP-43388, 48 hours.
Setting [7] is: 10 uM, virus strain NCCP-43344, 48 hours.
[8] abbreviates: Calu-3, 10 uM, virus strain NCCP-43344, 48 hours.

Where two headings read alike, the source gives them in different places. Some results are limits rather than exact numbers.

Regarding `c1ccc(-c2ccc(Nc3cccc(-c4nc5ccccc5[nH]4)c3)nn2)cc1` [Example 2, N-(3-(1H-benzo[d]imidazol-2-yl)phenyl)-6-phenylpyridazin-3-amine], the figures for the viability at 48 h, 1 µM in series [1] and in series [3] were 50 to 80% and more than 80%, respectively. The inhibition at 10 µM in series [2] (setting [5]) and in series [4] (setting [6]) was more than 60% in each case. Also, the viability (usually a per cent measure of how many cells are alive, often set against a control) at 48 h, 3 µM in series [3] is more than 80%. In series [3], this compound displayed a viability at 48 h, 10 µM of 50 to 80%.
Take `Clc1cc2nc(-c3cccc(Nc4ccc(-c5ccccc5)nn4)c3)[nH]c2cc1Cl` [Example 7, N-(3-(5,6-dichloro-1H-benzo[d]imidazol-2-yl)phenyl)-6-phenylpyridazin-3-amine]: the inhibition (commonly the relative decrease from the control value, in per cent) at 10 µM in series [2] (setting [7]) was in the range of 30 to 60%. In addition, in series [3], the viability at 48 h, 1 µM is more than 80% and the viability at 48 h, 3 µM is more than 80%. Besides, the inhibition at 10 µM in series [4] (setting [8]) fell in the range of 30 to 60%.
As to `FC(F)(F)c1cc2nc(-c3cccc(Nc4ccc(-c5ccccc5)nn4)c3)[nH]c2cc1Cl` [Example 8, N-{3-[6-chloro-5-(trifluoromethyl)-1H-benzo[d]imidazol-2-yl]phenyl}-6-phenylpyridazin-3-amine], the inhibition at 10 µM in series [2] (setting [7]) is 30 to 60%. In addition, in series [3], the viability at 48 h, 1 µM is more than 80% and the viability at 48 h, 3 µM was more than 80%. In addition, in series [4] (setting [8]), the inhibition at 10 µM lay in the range of 30 to 60%.
For `FC(F)(F)c1cc2nc(-c3cccc(Nc4ccc(-c5ccccc5)nn4)c3)[nH]c2cc1Br` [Example 9, N-{3-[6-bromo-5-(trifluoromethyl)-1H-benzo[d]imidazol-2-yl]phenyl}-6-phenylpyridazin-3-amine], the inhibition at 10 µM in series [2] (setting [7]) is 30 to 60%. For the same compound, in series [3], the viability at 48 h, 1 µM is more than 80% and the viability at 48 h, 3 µM lay in the range of 50 to 80%.
Consider `c1ccc(-c2ccc(Nc3cccc(-c4nc5ccccc5[nH]4)c3)cc2)nc1` [Example 20, 3-(1H-benzo[d]imidazol-2-yl)-N-(4-(pyridin-2-yl)phenyl)aniline], for which, in series [1], the viability at 48 h, 1 µM is more than 80% and the viability at 48 h, 3 µM was in the range of 50 to 80%. Besides, in series [2] (setting [5]), the inhibition at 10 µM was more than 60%. In series [3], this compound showed a viability at 48 h, 1 µM of more than 80% and a viability at 48 h, 10 µM of 50 to 80%. Further, the inhibition at 10 µM in series [4] (setting [6]) was more than 60%.
For the compound `c1cc(Nc2ccc(-c3cccnn3)cc2)cc(-c2nc3ccccc3[nH]2)c1` [Example 21, 3-(1H-benzo[d]imidazol-2-yl)-N-(4-(pyridazin-3-yl)phenyl)aniline], the viability at 48 h, 1 µM in series [1] is more than 80%. Besides, the viability at 48 h, 3 µM in series [1] is 50 to 80%; in series [3], more than 80%. The viability at 48 h, 10 µM in series [1] and in series [3] was 50 to 80% throughout. Moreover, the inhibition at 10 µM in series [2] (setting [5]) and in series [4] (setting [6]) was more than 60% each time.
Regarding `FC(F)(F)c1ccc2nc(-c3cccc(Nc4ccc(-c5ncccn5)cc4)c3)[nH]c2c1` [Example 27, N-[4-(pyrimidin-2-yl)phenyl]-3-[6-(trifluoromethyl)-1H-benzo[d]imidazol-2-yl]aniline], the inhibition at 10 µM in series [2] (setting [5]) and in series [4] (setting [6]) was more than 60% throughout. Further, in series [3], the viability at 48 h, 1 µM was more than 80%. The viability at 48 h, 3 µM in series [3] was more than 80%.
With `FC(F)(F)c1ccc2nc(-c3cccc(Nc4ccc(-c5cncnc5)cc4)c3)[nH]c2c1` [Example 28, N-[4-(pyrimidin-5-yl)phenyl]-3-[6-(trifluoromethyl)-1H-benzo[d]imidazol-2-yl]aniline], the inhibition at 10 µM in series [2] (setting [5]) and in series [4] (setting [6]) was more than 60% each time. This compound also showed a viability at 48 h, 1 µM in series [3] of more than 80%.
As for `c1cc(Nc2ncc(-c3ccncn3)cn2)cc(-c2nc3ccccc3[nH]2)c1` [Example 76, N-[3-(1H-benzo[d]imidazol-2-yl)phenyl]-[4,5′-bipyrimidin]-2′-amine], the inhibition at 10 µM in series [2] (setting [5]) and in series [4] (setting [6]) was 30 to 60% in each case.
Consider `FC(F)(F)c1ccc2nc(-c3cccc(Nc4ncc(-c5ccccn5)cn4)c3)[nH]c2c1` [Example 83, 5-(2-pyridyl)-N-[3-[6-(trifluoromethyl)-1H-benzo[d]imidazol-2-yl]phenyl]pyrimidin-2-amine], for which, in series [1], the viability at 48 h, 1 µM was more than 80%; the viability at 48 h, 3 µM was more than 80%; the viability at 48 h, 10 µM was more than 80%. In addition, the inhibition at 10 µM in series [2] (setting [5]) fell in the range of 30 to 60%. Also, in series [4] (setting [6]), the inhibition at 10 µM was 30 to 60%.
In series [1], `Cc1noc(-c2ccc3nc(-c4cccc(Nc5ccc(-c6cccnn6)cc5)c4)[nH]c3c2)n1` [Example 93, 3-(6-(3-methyl-1,2,4-oxadiazol-5-yl)-1H-benzo[d]imidazol-2-yl)-N-(4-(pyridazin-3-yl)phenyl)aniline] had a viability at 48 h, 1 µM of more than 80%; a viability at 48 h, 3 µM of more than 80%; a viability at 48 h, 10 µM of more than 80%. Moreover, in series [2] (setting [5]), the inhibition at 10 µM lay in the range of 30 to 60%. Moreover, in series [4] (setting [6]), the inhibition at 10 µM is more than 60%.
In series [1], `Fc1cc2[nH]c(-c3cccc(Nc4ccc(-c5cccnn5)cc4)c3)nc2cc1Cl` [Example 102, 3-(5-chloro-6-fluoro-1H-benzo[d]imidazol-2-yl)-N-(4-pyridazin-3-ylphenyl)aniline] gave a viability at 48 h, 1 µM of more than 80%; a viability at 48 h, 3 µM of more than 80%; a viability at 48 h, 10 µM of 50 to 80%. Also, the inhibition at 10 µM in series [2] (setting [5]) was more than 60%. Also, in series [4] (setting [6]), the inhibition at 10 µM was more than 60%.
Regarding `Cc1ccc2nc(-c3cccc(Nc4ccc(-c5cccnn5)cc4)c3)[nH]c2c1` [Example 105, 3-(6-methyl-1H-benzo[d]imidazol-2-yl)-N-(4-pyridazin-3-ylphenyl)aniline], in series [1], the viability at 48 h, 1 µM was more than 80%; the viability at 48 h, 3 µM was in the range of 50 to 80%; the viability at 48 h, 10 µM fell in the range of 50 to 80%. Moreover, the inhibition at 10 µM in series [2] (setting [5]) is more than 60%. Besides, the inhibition at 10 µM in series [4] (setting [6]) was more than 60%.
Take `c1cc(Nc2ncc(-c3ccsc3)cn2)cc(-c2nc3ccccc3[nH]2)c1` [Example 164, N-[3-(1H-benzo[d]imidazol-2-yl)phenyl]-5-(3-thienyl)pyrimidin-2-amine]: the inhibition at 10 µM in series [2] (setting [5]) and in series [4] (setting [6]) was more than 60% throughout.
On to `c1cc(Nc2ncc(-c3ncco3)cn2)cc(-c2nc3ccccc3[nH]2)c1` [Example 171, N-[3-(1H-benzo[d]imidazol-2-yl)phenyl]-5-oxazol-2-yl-pyrimidin-2-amine], for which the inhibition at 10 µM in series [2] (setting [5]) and in series [4] (setting [6]) was more than 60% in each case.
For the compound `Clc1ccc2nc(-c3cccc(Nc4ccc(-c5cccnn5)cc4)c3)[nH]c2c1` [Example 226, 3-(6-chloro-1H-benzo[d]imidazol-2-yl)-N-(4-(pyridazin-3-yl)phenyl)aniline], the inhibition at 10 µM in series [2] (setting [5]) and in series [4] (setting [6]) was more than 60% each time.
Turning to `O=[N+]([O-])c1ccc2nc(-c3cccc(Nc4ccc(-c5cccnn5)cc4)c3)[nH]c2c1` [Example 227, 3-(6-nitro-1H-benzo[d]imidazol-2-yl)-N-(4-(pyridazin-3-yl)phenyl)aniline], the inhibition at 10 µM is 30 to 60% in series [2] (setting [5]) and more than 60% in series [4] (setting [6]).
For `N#Cc1ccc2nc(-c3cccc(Nc4ccc(-c5cccnn5)cc4)c3)[nH]c2c1` [Example 231, 2-(3-((4-(pyridazin-3-yl)phenyl)amino)phenyl)-1H-benzo[d]imidazole-6-carbonitrile], in that order: more than 60% and more than 60%.
In the case of `FC(F)(F)Oc1cc2[nH]c(-c3cccc(Nc4ccc(-c5cccnn5)cc4)c3)nc2cn1` [Example 232, N-(4-(pyridazin-3-yl)phenyl)-3-(6-(trifluoromethoxy)-1H-imidazo[4,5-c]pyridin-2-yl)aniline], the inhibition at 10 µM was 30 to 60% in series [2] (48 h) and more than 60% in series [4] (Calu-3, 48 h).
As to `Fc1cccc(-c2cnc(Nc3cccc(-c4nc5ccc(C(F)(F)F)cc5[nH]4)c3)nc2)n1` [Example 258, 5-(6-fluoropyridin-2-yl)-N-(3-(6-(trifluoromethyl)-1H-benzo[d]imidazol-2-yl)phenyl)pyrimidin-2-amine], the inhibition at 10 µM in series [2] (setting [5]) was 30 to 60%.
For the compound `Fc1cccc(-c2cnc(Nc3cccc(-c4nc5ccccc5[nH]4)c3)nc2)n1` [Example 259, N-(3-(1H-benzo[d]imidazol-2-yl)phenyl)-5-(6-fluoropyridin-2-yl)pyrimidin-2-amine], the inhibition at 10 µM in series [2] (setting [5]) and in series [4] (setting [6]) was more than 60% each time.

The record behind these values is patent US20260364068A1, “ANTIVIRAL USE OF HETEROARYL DERIVATIVE COMPOUND” (UIF (University Industry Foundation), Yonsei University, priority 2022, published 2026).
